Four molecules from patent publication US11958855B2, “Aurora kinase inhibitors for inhibiting mitotic progression” (Millennium Pharmaceuticals, Inc., priority 2006, dated 2024) can be followed below.

Structures are written as SMILES. pIC50: −log10 of the molar value.

One data set has as its system SW480 cells. Nature of the data set: BrdU cell proliferation assay in SW480 cells.
A further data set has as its system HCT116 cells. Nature of the data set: BrdU cell proliferation assay in HCT116 cells.
For data set [1], the system named is HCT-116 human colon carcinoma xenograft. Nature of the data set: In vivo tumor efficacy model, mouse HCT116 human colon carcinoma xenograft. The method, then: In Vivo Tumor Efficacy Model
HCT-116 (1×10^6) cells in McCoy's 5A medium were aseptically injected into the subcutaneous space in the right dorsal flank of female CD-1 nude mice (age 8 weeks, Charles River) using a 23-ga needle. Tumor volumes were calculated using standard procedures (0.5×(length×width^2)). […]. Doses (0.1 mL) were administered via 22 gauge oral gavage needle. Control animals received vehicle alone. Animals were dosed once daily for 21 days, and there were 10 animals in each group. Tumor size and body weight were measured twice per week. Compounds 1 and iii were well-tolerated at all doses in this study. […]
In general terms: Xenograft models place foreign cells or tissue in a host animal.

A further data set addresses T1, Aurora A (Homo sapiens, UniProt O14965).
T1 construct: Human tumor cells (HCT-116, obtained from ATCC) were grown on 96-well dishes; host or cells: HCT-116
T1 sequence (O14965 1-403): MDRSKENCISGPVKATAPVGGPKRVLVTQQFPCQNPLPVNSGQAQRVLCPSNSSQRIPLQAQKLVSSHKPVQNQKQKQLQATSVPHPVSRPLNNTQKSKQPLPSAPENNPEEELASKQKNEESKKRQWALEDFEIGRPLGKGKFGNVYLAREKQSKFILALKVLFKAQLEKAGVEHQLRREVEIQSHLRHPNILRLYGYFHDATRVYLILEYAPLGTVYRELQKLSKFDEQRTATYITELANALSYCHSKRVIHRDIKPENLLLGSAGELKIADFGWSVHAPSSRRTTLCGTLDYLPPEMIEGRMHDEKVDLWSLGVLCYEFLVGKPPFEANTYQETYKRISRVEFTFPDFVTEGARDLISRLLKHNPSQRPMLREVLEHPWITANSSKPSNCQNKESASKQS
Nature of the data set: pT288 Aurora A autophosphorylation assay. In kind it is cell-based. Conditions: HCT-116 cells, 60 minutes treatment.

[2] abbreviates: oral, once daily for 21 days, at each dose.

Procedure for Aurora A: pT288 Aurora A Autophosphorylation Assay.
After incubation, the growth medium was replaced with 75 μL of fresh media and 25 μL of test compound was added to the cells in two-fold serial dilutions in dimethyl sulfoxide (DMSO) to achieve final concentrations ranging from 5 to 0.010 μM. Test compound at each dilution was added as replicates in 4 rows on the dish, and DMSO (20 nM) was added to each well of two columns for the untreated controls. The cells were treated with test compound or DMSO for 60 minutes at 37° C. in a humidified cell culture chamber. Cells were then fixed with 4% para-formaldehyde in phosphate-buffered saline (PBS) for 10 minutes, permeated with 0.5% Triton X-100 in PBS for 10 minutes, and washed twice in PBS.
Cells were visualized using a Discovery-1 High Content Imaging System. Images from nine or sixteen sites per well were captured at 200× magnification. Inhibition of Aurora A was determined by measuring pT288 (Aurora A autophosphorylation) fluorescent intensity within MPM2 immunopositive (mitotic) cells using Metamorph software. Concentration response curves were generated by calculating the decrease of pT288 fluorescent intensity in test compound-treated samples relative to the DMSO-treated controls, and growth inhibition (IC50) values were determined from those curves.
Procedure for HCT116 cells: BrdU Cell Proliferation Assay
(§1) Cell proliferation of each cell line was measured using the cell proliferation enzyme-linked immunosorbent assay (ELISA), 5-bromo-2′-deoxyuridine (BrdU) colorimetric kit according to the manufacturer's recommendations. The assay measures cell proliferation by quantifying BrdU incorporation into replicating deoxyribonucleic acid (DNA). Briefly, each well was incubated with 10 μL of BrdU labeling reagent for 2 hours at 37° C. in a humidified cell culture chamber. After aspiration of the labeling media, the cells were fixed and denatured by adding 200 μL of ethanol to each well and incubated for 30 minutes at room temperature.
(§2) Concentration response curves were generated by calculating the decrease in optical density in samples treated with test compound relative to the DMSO-treated controls.
Procedure for SW480 cells: BrdU Cell Proliferation Assay
as §1, §2

For the molecule `COc1cccc(F)c1C1=NCc2cnc(Nc3ccc(C(=O)O)cc3)nc2-c2ccc(Cl)cc21` [iii], the “BrdU SW480 LD50” value in the data set on SW480 cells came to 0.94 µM. Further, the “BrdU HCT116 LD50” value in the data set with HCT116 cells was found to be 0.13 µM. For the same molecule, the tolerability entry in data set [1] (oral, once daily for 21 days, all doses, female CD-1 nude mice) is listed as “well-tolerated”. Moreover, the pIC50 against Aurora A was 7.74.
In the case of `COc1cc(Nc2ncc3c(n2)-c2ccc(Cl)cc2C(c2c(F)cccc2OC)=NC3)ccc1C(=O)O` [Compound 1, 4-{[9-chloro-7-(2-fluoro-6-methoxyphenyl)-5H-pyrimido[5,4-d][2]benzazepin-2-yl]amino}-2-methoxybenzoic acid], the “BrdU SW480 LD50” value in the data set on SW480 cells stood at 0.41 µM. In the data set on HCT116 cells, the “BrdU HCT116 LD50” value is 0.03 µM. For the same molecule, the “in vivo potency compared with compound iii” value in data set [1] (mouse HCT116 human colon carcinoma xenograft model) is given as “more potent than compound iii”. Moreover, in data set [1] (mouse, in vivo, po), the tolerability result is “well-tolerated”. For the same molecule, in data set [1] (setting [2]), the “tumor growth delay (TGD) compared with compound iii” value is recorded as “longer tumor growth delay” and the “tumor growth inhibition (TGI) compared with compound iii” value was “greater tumor growth inhibition”.
On to `O=C(O)c1ccc(Nc2ncc3c(n2)-c2ccc(Cl)cc2C(c2ccccc2F)=NC3)cc1` [i], for which the “BrdU SW480 LD50” value in the data set with SW480 cells came out at 6.502 µM. Also, the “BrdU HCT116 LD50” value in the data set with HCT116 cells turned out to be 0.707 µM.
Consider `COc1cc(Nc2ncc3c(n2)-c2ccc(Cl)cc2C(c2ccccc2F)=NC3)ccc1C(=O)O` [ii], for which the “BrdU SW480 LD50” value in the data set on SW480 cells turned out to be 7.579 µM. For the same molecule, the “BrdU HCT116 LD50” value with HCT116 cells came out at 0.758 µM. This molecule gave a pIC50 on Aurora A of 6.82.

A word on the pIC50: it is the IC50 on a negative log10 scale, so that one unit is a factor of ten. Low readings indicate a high IC50, high ones a low IC50.
